In paper PMC11939996 (Biomolecules, 2025):
pKd: −log10 of the molar value. Each block holds one substance with its values, some of them ahead of it.

How the values were obtained:
[1] = test system: Aβ40/Aβ42; assay: Chemical cross-linking with glutaraldehyde, SDS-PAGE; type: binding, human; settings: faint band; 0.02% glutaraldehyde, 37 °C, 1 h, 25–75 μM S100A8, 20 μM Aβ40/Aβ42, pH 7.4
Description: The protein solution was incubated at 25 °C for 30 min prior to the cross-linking.

[2] = test system: monomeric Aβ42; assay: Bio-layer interferometry, analyte binding to immobilized monomeric Aβ42; parameters: species or system human; settings: for ka × 10^−2: association, bivalent analyte model, number is ka multiplied by 10^−2, 25 °C, pH 7.4, 2.5 mM CaCl2, mean ± SD, n = 3–4
Description: (§1) Next, 96-well microplates with analyte solutions were kept at 25 °C and shaken at 1000 rpm. The Aβ samples were pretreated with neat TFA, followed by dissolution in DMSO as described in ref. [61, 66]. […] The rest of the activated amine groups on the sensor were blocked by 1 M ethanolamine solution. […] The sensor surface was regenerated by the passage of 0.5% SDS water solution for 30 s.
(§2) The direct interaction of S100 proteins with monomeric Aβ was studied by biolayer interferometry in the buffer conditions mimicking the physiological conditions (20 mM Tris-HCl, 140 mM NaCl, 4.9 mM KCl, 2.5 mM CaCl2, 1 mM MgCl2, pH 7.4).
(§3) Since the S100 proteins are predominantly dimeric, their BLI sensograms were described within the bivalent analyte model (1), taking into account that the dimer concentration is half of the monomer concentration.

[3] = test system: HSA–Aβ40 interaction; assay: BLI competition: HSA interaction with monomeric Aβ40 in presence of S100A8/S100A9; type: binding, human; settings: 67 µM HSA with 12 µM S100A8 or 7 µM S100A9; 25 °C, pH 7.4, 2.5 mM CaCl2
Description: (§4) Next, 96-well microplates with analyte solutions were kept at 25 °C and shaken at 1000 rpm. The Aβ samples were pretreated with neat TFA, followed by dissolution in DMSO as described in ref. [61, 66]. The pretreated ligand (5 μg/mL Aβ40/Aβ42 in 10 mM sodium acetate, pH 4.5 buffer) was immobilized onto Octet® AR2G biosensor (Sartorius AG, Göttingen, Germany) by amine coupling using EDAC/sulfo-NHS to achieve the loading level of 3.5 nm. The rest of the activated amine groups on the sensor were blocked by 1 M ethanolamine solution. The noncovalently bound ligand molecules were washed off the sensor with a 0.5% SDS water solution, followed by passage of the assay buffer (20 mM Tris-HCl, 140 mM NaCl, 4.9 mM KCl, 2.5 mM CaCl2, 1 mM MgCl2, pH 7.4), resulting in the loading level of 1.5 nm. […] The sensor surface was regenerated by the passage of 0.5% SDS water solution for 30 s.

[4] = test system: HSA–Aβ42 interaction; assay: BLI competition: HSA interaction with monomeric Aβ42 in presence of S100A8/S100A9; type: binding, human; settings: 67 µM HSA with 12 µM S100A8 or 7 µM S100A9; 25 °C, pH 7.4, 2.5 mM CaCl2
Description: as §4

[5] = molecular target: Toll-like receptor 4; settings: in the presence of Ca^2+ and Zn^2+; cited from earlier work
[6] = molecular target: RAGE V domain (Homo sapiens) (UniProt Q15109); settings: cited from earlier work
[7] = test system: Aβ40 fibrillation; assay: Transmission electron microscopy of Aβ40 fibrils; parameters: species or system human; settings: 20 μM Aβ40 alone or with 4 μM S100A8 or S100A9, after ThT assay (30 °C, pH 7.4)
Description: A 300-mesh copper grid coated with a 0.2% formvar film was placed onto a 10 µL drop of the sample. After allowing the sample (after the ThT fluorescence assay) to adsorb for 10 min, the grid was negatively stained for 2 min using a 1% (w/v) aqueous solution of uranyl acetate. Excess staining solution was removed with filter paper, followed by a 1 min rinse in deionized water. The samples were examined using a JEM-1400Plus (HC) transmission electron microscope (JEOL, Ltd., Tokyo, Japan) operated at 80 keV.

[8] = molecular target: Toll-like receptor 4 (Homo sapiens) (UniProt O00206); settings: cited from earlier work
[9] = test system: monomeric Aβ40; assay: Bio-layer interferometry, analyte binding to immobilized monomeric Aβ40; parameters: species or system human; settings: association; bivalent analyte model; number is ka multiplied by 10^−2; 25 °C, pH 7.4, 2.5 mM CaCl2; mean ± SD, n = 3–4
Description: as §1, §2, §3

[10] = molecular target: RAGE V domain; settings: cited from earlier work
[11] = test system: Aβ40; settings: cited from earlier work
Source text: Another component colocalized with senile plaques and associated with AD are specific members of the S100 protein family (reviewed in ref. [36]). The S100 family contains over two dozen small (9–13 kDa) multifunctional Ca^2+-binding proteins of the EF-hand superfamily, defined by the presence of the EF-hand motif, which coordinates a calcium ion through a loop located between two α-helices. Some S100 proteins affect cognitive processes, neuronal development and maintenance, APP processing, Aβ levels, the formation of amyloid plaques, post-translational modif ...

Sequence of Toll-like receptor 4 (Homo sapiens) (O00206 24-839): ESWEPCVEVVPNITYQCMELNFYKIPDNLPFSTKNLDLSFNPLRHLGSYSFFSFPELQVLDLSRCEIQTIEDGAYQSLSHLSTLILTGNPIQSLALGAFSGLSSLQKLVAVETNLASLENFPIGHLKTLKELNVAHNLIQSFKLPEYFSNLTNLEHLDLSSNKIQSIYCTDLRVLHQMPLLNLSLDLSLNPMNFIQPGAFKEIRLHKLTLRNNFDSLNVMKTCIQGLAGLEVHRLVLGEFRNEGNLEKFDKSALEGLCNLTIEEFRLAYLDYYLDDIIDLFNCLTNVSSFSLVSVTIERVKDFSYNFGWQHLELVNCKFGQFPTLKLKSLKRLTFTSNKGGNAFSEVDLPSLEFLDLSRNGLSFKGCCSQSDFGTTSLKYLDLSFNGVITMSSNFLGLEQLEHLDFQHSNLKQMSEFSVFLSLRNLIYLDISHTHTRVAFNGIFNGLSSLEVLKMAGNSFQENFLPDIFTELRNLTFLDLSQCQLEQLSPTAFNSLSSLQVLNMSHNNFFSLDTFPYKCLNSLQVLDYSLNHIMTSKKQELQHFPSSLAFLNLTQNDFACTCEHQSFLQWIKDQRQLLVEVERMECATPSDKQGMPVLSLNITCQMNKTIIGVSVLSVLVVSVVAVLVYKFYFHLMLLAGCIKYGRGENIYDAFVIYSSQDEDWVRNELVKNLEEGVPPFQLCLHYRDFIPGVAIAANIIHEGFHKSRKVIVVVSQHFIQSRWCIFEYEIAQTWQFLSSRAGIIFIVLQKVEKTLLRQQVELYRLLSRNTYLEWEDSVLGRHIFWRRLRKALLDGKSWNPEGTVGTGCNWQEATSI
Sequence of S100A9 (P06702 whole entry): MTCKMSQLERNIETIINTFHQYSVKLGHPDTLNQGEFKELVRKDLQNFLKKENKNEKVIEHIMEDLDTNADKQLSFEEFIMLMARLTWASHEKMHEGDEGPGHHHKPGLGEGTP
Sequence of RAGE V domain (Homo sapiens) (Q15109 23-116): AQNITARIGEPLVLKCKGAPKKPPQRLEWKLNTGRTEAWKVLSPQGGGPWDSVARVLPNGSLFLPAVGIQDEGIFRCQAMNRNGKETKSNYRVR

- accelerated association with Aβ42 versus Aβ40 ([2]; Aβ42 vs Aβ40): 1.5 fold
- slower dissociation from Aβ42 versus Aβ40 ([2]; Aβ42 vs Aβ40): 2.4 fold
- ka × 10^−2 [2]: 3.4 ± 0.9 M^−1s^−1
Substance: S100A8: Recombinant human S100A8 prepared in E. coli; pro-inflammatory EF-hand Ca2+-binding protein
- band of cross-linked complex of S100A8 and Aβ monomers [1]: about 15 kDa
- maximal BLI signal of HSA interaction with Aβ40 [3]: marked decline in the maximal BLI signal
- maximal BLI signal of HSA interaction with Aβ42 [4]: marked decline in the maximal BLI signal
- pKd [5]: 6.00

Substance: S100A9 (from UniProt P06702)
- pKd [6]: 5.26

Substance: Aβ40: Recombinant human amyloid-β peptide, 40 residues, prepared in E. coli
- fibril morphology by TEM [7]: dense clusters of the intertwined mature fibrils reaching microns in length

Substance: S100A8 (from UniProt P05109)
- pKd [8]: 6.00

- ka × 10^−2 [9]: 2.6 ± 1.0 M^−1s^−1
- ka × 10^−2 [2]: 4.5 ± 1.3 M^−1s^−1
Substance: S100A9: Recombinant human S100A9 prepared in E. coli; pro-inflammatory EF-hand Ca2+-binding protein
- maximal BLI signal of HSA interaction with Aβ40 [3]: marked decline in the maximal BLI signal
- maximal BLI signal of HSA interaction with Aβ42 [4]: marked decline in the maximal BLI signal
- pKd [10]: 5.22 to 5.30
- direct S100A9–Aβ40 interaction by NMR [11]: direct S100A9–Aβ40 interaction
